{
  "source": "patent US20150290232A1",
  "about": "“DRUG COMPOSITION FOR TREATING TUMORS AND APPLICATION THEREOF” (priority 2012, published 2015)",
  "format_in_all_cases": "cell-based",
  "key": {"[1]": {"system": "kasumi-1 cells (acute myeloid leukemia M2 type)", "experiment": "MTT cell viability, leukemia cells, TTD and Acla A alone and combined", "conditions": "Homo sapiens, Kasumi 1, 72 h", "description": "(§1) Well-growing leukemia cells were obtained and inoculated into wells of a 96-well cell culture plate at 5000 cells/well. Individual compounds of various concentrations were added, mixed uniformly, and incubated (5% CO2) at 37° C. for 72 hours. Then the cell viability was determined by the MTT method.\n(§2) b) Determine the inhibitory effects of TTD in combination with Ada A on leukemia cells in vitro. The pretreatment of the cells was the same as in a). The control group was not treated with the compound while administered. […] After 72 hours of incubation, the MTT method was used for the determination of cell viability. The cell viability of the control group was set to 100% in this experiment, and the TTD, Ada A single drug and combined effects on cell viability (%) were calculated."}, "[2]": {"system": "k562/ADR leukemia cells (drug-resistant chronic myeloid leukemia)", "experiment": "MTT cell viability, leukemia cells, TTD and Acla A alone and combined", "conditions": "Homo sapiens, K562/Adr, 72 h", "description": "as §1, §2"}, "[3]": {"system": "Jurkat cells (acute lymphoblastic leukemia)", "experiment": "MTT cell viability, leukemia cells, TTD and Acla A alone and combined", "conditions": "Homo sapiens, 72 h", "description": "as §1, §2"}, "[4]": {"system": "CaES-17 (esophageal cancer cell)", "experiment": "MTT cell viability, human solid tumor cells", "conditions": "CaEs17, 72 h", "description": "(§3) Well-growing cells of above were obtained and inoculated into wells of a 96-well cell culture plate at 5000 cells/well. Individual compounds of various concentrations were added, mixed uniformly, and incubated (5% CO2) at 37° C. for 72 hours. Then the cell viability was determined by the MTT method.\n(§4) b) Determine the inhibitory effects of TTD in combination with Ada A on the human solid tumor cells. The pretreatment of the cells was the same as in a). The control group was not treated with the compound while administered. The two single-drug groups were added with respective active component to the concentration under which the IC50 of two compounds in a) achieve. As to the combination group, two compounds were added together into the same group of wells, with the fmal concentration being the concentration to which the IC50 of the single drugs correspond. After 72 hours of incubation, the MTT method was used for the determination of cell viability. The cell viability of the control group was set to 100% in this experiment, and the TTD, Ada A single drug and combined effects on cell viability (%) were calculated."}, "[5]": {"system": "Hep2 (laryngeal carcinoma)", "experiment": "MTT cell viability, human solid tumor cells", "conditions": "HEp-2, 72 h", "description": "as §3\nas §4, with “The two single-drug groups were added with respective active component to the concentration under which the IC50 of two compounds in a) achieve.” left out"}, "[6]": {"system": "RKO (human colon adenocarcinoma cell)", "experiment": "MTT cell viability, human solid tumor cells", "conditions": "72 h", "description": "as §3\nas §4, with “The two single-drug groups were added with respective active component to the concentration under which the IC50 of two compounds in a) achieve.” left out"}, "[7]": {"system": "Hep G2 (human hepatoma carcinoma cell)", "experiment": "MTT cell viability, human solid tumor cells", "conditions": "HepG2, 72 h", "description": "as §3\nas §4, with “The two single-drug groups were added with respective active component to the concentration under which the IC50 of two compounds in a) achieve.” left out"}, "[8]": {"system": "Huh7 (human liver cancer cell)", "experiment": "MTT cell viability, human solid tumor cells", "conditions": "Huh-7, 72 h", "description": "as §3\nas §4, with “The two single-drug groups were added with respective active component to the concentration under which the IC50 of two compounds in a) achieve.” left out"}, "[9]": {"system": "CNE (nasopharyngeal carcinoma cell)", "experiment": "MTT cell viability, human solid tumor cells", "conditions": "72 h", "description": "as §3\nas §4, with “The two single-drug groups were added with respective active component to the concentration under which the IC50 of two compounds in a) achieve.” left out"}, "[10]": {"system": "Becap-37 (human breast cancer cell)", "experiment": "MTT cell viability, human solid tumor cells", "conditions": "72 h", "description": "as §3\nas §4, with “The two single-drug groups were added with respective active component to the concentration under which the IC50 of two compounds in a) achieve.” left out"}, "[11]": {"system": "MG63 (osteosarcoma)", "experiment": "MTT cell viability, human solid tumor cells", "conditions": "MG-63, 72 h", "description": "as §3\nas §4, with “The two single-drug groups were added with respective active component to the concentration under which the IC50 of two compounds in a) achieve.” left out"}, "[12]": {"system": "Panc-1 (pancreatic cancer)", "experiment": "MTT cell viability, human solid tumor cells", "conditions": "PANC-1, 72 h", "description": "as §3\nas §4, with “The two single-drug groups were added with respective active component to the concentration under which the IC50 of two compounds in a) achieve.” left out"}, "[13]": {"system": "PC-3 (prostate cancer)", "experiment": "MTT cell viability, human solid tumor cells", "conditions": "72 h", "description": "as §3\nas §4, with “The two single-drug groups were added with respective active component to the concentration under which the IC50 of two compounds in a) achieve.” left out"}, "[14]": {"system": "Hela (human cervical cancer cell)", "experiment": "MTT cell viability, human solid tumor cells", "conditions": "HeLa, 72 h", "description": "as §3\nas §4, with “The two single-drug groups were added with respective active component to the concentration under which the IC50 of two compounds in a) achieve.” left out"}, "[15]": {"system": "A549 (human lung cancer)", "experiment": "MTT cell viability, human solid tumor cells", "conditions": "A549, 72 h", "description": "as §3\nas §4, with “The two single-drug groups were added with respective active component to the concentration under which the IC50 of two compounds in a) achieve.” left out"}, "[16]": {"system": "U87-MG (malignant glioma cell)", "experiment": "MTT cell viability, human solid tumor cells", "conditions": "U-87 MG, 72 h", "description": "as §3\nas §4, with “The two single-drug groups were added with respective active component to the concentration under which the IC50 of two compounds in a) achieve.” left out"}, "[17]": {"system": "MGC-803 (human gastric cancer cell)", "experiment": "MTT cell viability, human solid tumor cells", "conditions": "MGC-803, 72 h", "description": "as §3\nas §4, with “The two single-drug groups were added with respective active component to the concentration under which the IC50 of two compounds in a) achieve.” left out"}, "[18]": {"system": "SPC-A-1 (human lung adenocarcinoma cell)", "experiment": "MTT cell viability, human solid tumor cells", "conditions": "SPCA1, 72 h", "description": "as §3\nas §4, with “The two single-drug groups were added with respective active component to the concentration under which the IC50 of two compounds in a) achieve.” left out"}, "[19]": {"system": "SK-OV-3 (ovarian cancer cell)", "experiment": "MTT cell viability, human solid tumor cells", "conditions": "SK-OV-3, 72 h", "description": "as §3\nas §4, with “The two single-drug groups were added with respective active component to the concentration under which the IC50 of two compounds in a) achieve.” left out"}, "[20]": {"conditions": "read-out: concentration (IC50 value of 72 hours)"}},
  "data": [
    {"smiles": "CC[C@@]1(O)C[C@H](O[C@H]2C[C@H](N(C)C)[C@H](O[C@H]3C[C@H](O)[C@H](O[C@H]4CCC(=O)[C@H](C)O4)[C@H](C)O3)[C@H](C)O2)c2c(cc3c(c2O)C(=O)c2c(O)cccc2C3=O)[C@H]1C(=O)OC", "note": "[Acla A, aclarubicin A]", "values": [
      {"measurement": "viability at 0.04 µg/mL", "setting": "[1]; read-out: CV (cell viability)", "value": 52.5, "unit": "%"},
      {"measurement": "IC50", "setting": "[1]; [20]", "value": 0.04, "unit": "µg/mL"},
      {"measurement": "viability at 0.09 µg/mL", "setting": "[2]; read-out: CV (cell viability)", "value": 49.1, "unit": "%"},
      {"measurement": "IC50", "setting": "[2]; [20]", "value": 0.09, "unit": "µg/mL"},
      {"measurement": "viability at 0.029 µg/mL", "setting": "[3]; read-out: CV (cell viability)", "value": 58, "unit": "%"},
      {"measurement": "IC50", "setting": "[3]; [20]", "value": 0.029, "unit": "µg/mL"},
      {"measurement": "viability at 0.24 µg/mL", "setting": "[4]; read-out: CV (cell viability)", "value": 45.4, "unit": "%"},
      {"measurement": "IC50", "setting": "[4]; [20]", "value": 0.24, "unit": "µg/mL"},
      {"measurement": "viability at 0.25 µg/mL", "setting": "[5]; read-out: CV (cell viability)", "value": 51, "unit": "%"},
      {"measurement": "IC50", "setting": "[5]; [20]", "value": 0.25, "unit": "µg/mL"},
      {"measurement": "viability at 0.04 µg/mL", "setting": "[6]; read-out: CV (cell viability)", "value": 49.6, "unit": "%"},
      {"measurement": "IC50", "setting": "[6]; [20]", "value": 0.04, "unit": "µg/mL"},
      {"measurement": "viability at 0.25 µg/mL", "setting": "[7]; read-out: CV (cell viability)", "value": 51.6, "unit": "%"},
      {"measurement": "IC50", "setting": "[7]; [20]", "value": 0.25, "unit": "µg/mL"},
      {"measurement": "viability at 0.05 µg/mL", "setting": "[8]; read-out: CV (cell viability)", "value": 44.5, "unit": "%"},
      {"measurement": "IC50", "setting": "[8]; [20]", "value": 0.05, "unit": "µg/mL"},
      {"measurement": "viability at 0.15 µg/mL", "setting": "[9]; read-out: CV (cell viability)", "value": 48.9, "unit": "%"},
      {"measurement": "IC50", "setting": "[9]; [20]", "value": 0.15, "unit": "µg/mL"},
      {"measurement": "viability at 0.5 µg/mL", "setting": "[10]; read-out: CV (cell viability)", "value": 44.8, "unit": "%"},
      {"measurement": "IC50", "setting": "[10]; [20]", "value": 0.5, "unit": "µg/mL"},
      {"measurement": "viability at 0.1 µg/mL", "setting": "[11]; read-out: CV (cell viability)", "value": 46.6, "unit": "%"},
      {"measurement": "IC50", "setting": "[11]; [20]", "value": 0.1, "unit": "µg/mL"},
      {"measurement": "viability at 0.25 µg/mL", "setting": "[12]; read-out: CV (cell viability)", "value": 58, "unit": "%"},
      {"measurement": "IC50", "setting": "[12]; [20]", "value": 0.25, "unit": "µg/mL"},
      {"measurement": "viability at 0.8 µg/mL", "setting": "[13]; read-out: CV (cell viability)", "value": 46.1, "unit": "%"},
      {"measurement": "IC50", "setting": "[13]; [20]", "value": 0.8, "unit": "µg/mL"},
      {"measurement": "viability at 0.095 µg/mL", "setting": "[14]; read-out: CV (cell viability)", "value": 52.7, "unit": "%"},
      {"measurement": "IC50", "setting": "[14]; [20]", "value": 0.095, "unit": "µg/mL"},
      {"measurement": "viability at 0.08 µg/mL", "setting": "[15]; read-out: CV (cell viability)", "value": 50.4, "unit": "%"},
      {"measurement": "IC50", "setting": "[15]; [20]", "value": 0.08, "unit": "µg/mL"},
      {"measurement": "viability at 0.21 µg/mL", "setting": "[16]; read-out: CV (cell viability)", "value": 54.1, "unit": "%"},
      {"measurement": "IC50", "setting": "[16]; [20]", "value": 0.21, "unit": "µg/mL"},
      {"measurement": "viability at 0.1 µg/mL", "setting": "[17]; read-out: CV (cell viability)", "value": 42.2, "unit": "%"},
      {"measurement": "IC50", "setting": "[17]; [20]", "value": 0.1, "unit": "µg/mL"},
      {"measurement": "viability at 0.03125 µg/mL", "setting": "[18]; read-out: CV (cell viability)", "value": 50.6, "unit": "%"},
      {"measurement": "IC50", "setting": "[18]; [20]", "value": 0.0312, "unit": "µg/mL"},
      {"measurement": "viability at 0.25 µg/mL", "setting": "[19]; read-out: CV (cell viability)", "value": 53.4, "unit": "%"},
      {"measurement": "IC50", "setting": "[19]; [20]", "value": 0.25, "unit": "µg/mL"}
    ]}
  ]
}
